Measured values from PubChem BioAssay (NCI).
Where “and” joins values, the source holds several entries; their conditions need not be identical. Identical values can stand only once.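 How tested: cells in 96-well plates exposed to compound for 48 hours at five concentrations. GI50 = concentration required for 50% inhibition of growth. TGI is the concentration that stops growth completely.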

Legend:
Assay in all cases: NCI tumour cell line growth inhibition, 48 h
[1] = system: ACHN renal
[2] = system: OVCAR-4 ovarian
[3] = system: CAKI-1 renal
[4] = system: SK-OV-3 ovarian
[5] = system: IGROV1 ovarian
[6] = system: SNB-75 CNS
[7] = system: SF-539 CNS
[8] = system: EKVX NSCLC
[9] = system: HCC-2998 colon
[10] = system: MALME-3M melanoma

| Compound | GI50 [1] [µM] | TGI [1] [µM] | GI50 [2] [µM] | TGI [2] [µM] | GI50 [3] [µM] | TGI [3] [µM] | GI50 [4] | TGI [4] [µM] | GI50 [5] [µM] | TGI [5] [µM] | GI50 [6] [µM] | TGI [6] [µM] | GI50 [7] [µM] | TGI [7] | TGI [8] [µM] | TGI [9] | TGI [10] [µM] | GI50 [9] [µM] | GI50 [10] [µM] | GI50 [8] [µM] |
| --- | --- | --- | --- | --- | --- | --- | --- | --- | --- | --- | --- | --- | --- | --- | --- | --- | --- | --- | --- | --- |
| N#CC(C#N)=C1CCOc2ccc(F)cc21 | 13.3 | 26 | 14.6 | 27.8 | 15.4 | 51.9 | 16.3 µM | 30.7 | 17.4 | 57 | 22.7 | 81.9 | 12.4 | 24.9 µM | 9.3 |  |  |  |  |  |
| CN(C)CCC(CCN(C)C)=NO |  | > 100 |  | > 100 |  | > 100 |  | > 100 |  | > 100 |  | > 100 |  | > 100 µM | > 100 | > 100 µM | > 100 |  |  |  |
| CCOC(=O)C1=C(C)NC2=C(C(=O)N(c3ccccc3)C2c2ccccc2)C1c1ccccc1 (stereo not drawn) |  | 27 |  |  |  | 31.6 |  | 31.4 |  | 40.8 |  | 26.6 |  | 33.1 µM | 44.2 | 31.7 µM | 33.7 |  |  |  |
| C=CC(=O)N1C[C@@H]2CCOc3c(Cl)c(-c4c(O)cccc4F)c(F)c4ncnc(c34)N2C[C@H]1C | 10.5 | 22.2 | 9.18 | 72 | 2.67 | 19.4 | 17.3 µM | 42.7 | 17.4 | 46.6 | 10.8 | 23.5 | 12.9 | 25.8 µM | 27.8 | 28.8 µM | 23.8 | 15.2 | 10.8 | 14.4 |
| COc1cc(CC2c3cc(OC)c(OC)cc3CCN2C)ccc1O (stereo not drawn) |  | > 100 |  | > 100 |  | > 100 |  |  |  |  |  | > 100 |  | > 100 µM | > 100 | > 100 µM | > 100 |  |  |  |
| COc1ccc(CCN(CC(=O)N(CC(N)=O)C2CCC[C@@H]2OCc2ccccc2)C(=O)CN(C(=O)CN(CCc2ccc(Cl)cc2)C(=O)CN(C(=O)CN(C)Cc2ccccc2F)[C@H](C)C2CCCCC2)[C@H](C)C2CCCCC2)cc1OC (stereo partly drawn) | 2.05 | > 50 | 1.95 | > 50 |  |  | 2.5 µM | > 50 | 1.68 | > 50 | 1.09 | > 50 | 1.43 | 4.54 µM | > 50 | > 50 µM | 46.2 | 1.61 | 1.66 | 2.85 |
| CC(C)(C)c1cc(CCCCCCCC2(CCCCCCCc3cc(C(C)(C)C)cc(C(C)(C)C)c3)OC(COCCOCCCCCC#N)C(COCCOCCCCCC#N)O2)cc(C(C)(C)C)c1 (stereo not drawn) |  | > 100 |  | > 100 |  | > 100 |  | > 100 |  | > 100 |  | > 100 |  |  | > 100 | > 100 µM | > 100 |  |  |  |
| COC(=O)c1ccc(/C=C(\c2ccc([N+](=O)[O-])o2)S(=O)(=O)c2ccc(NC(C)=O)cc2)o1 |  | 11.1 |  | 4.67 |  | 29.4 |  | 38.2 |  | 28.4 |  | 36.2 |  | 15.2 µM | 26.3 |  | 8.91 |  |  |  |
| COc1ccc(C(=O)c2c3cc(OC)c(OC)c(OC)c3cc[n+]2C)cc1 |  | > 100 |  |  |  |  |  | > 100 |  | > 100 |  | 95.7 |  |  | > 100 | 98.8 µM | > 100 |  |  |  |
| Cc1cnc2oc3ccc(O)cc3c2c1-c1ccccc1 | 18.8 | > 100 | > 100 | > 100 | 58.6 | > 100 | 25 µM | 86.9 | 47 | > 100 | 21.2 | > 100 | 16.1 | 37.5 µM | 65.5 |  | > 100 |  | 32.5 | 13.8 |
| O=c1[nH]c(=O)n(C2CC(O)C(CO)O2)cc1C(F)(C(F)(F)F)C(F)(F)F (stereo not drawn) |  | > 100 |  | > 100 |  | > 100 |  | > 100 |  | > 100 |  | > 100 |  | > 100 µM | > 100 |  | > 100 |  |  |  |
| CCOc1cn(C2OC(CO)C(O)C2O)c(=O)[nH]c1=O (stereo not drawn) |  | > 100 |  |  |  | > 100 |  | > 100 |  | > 100 |  | > 100 |  |  | > 100 | > 100 µM | > 100 |  |  |  |
| O=C1C(=C([O-])c2ccccc2)C(=O)c2ccccc21.O=C1C(=C([O-])c2ccccc2)C(=O)c2ccccc21.[Mn+2] |  |  | > 100 | > 100 | > 100 | > 100 |  |  | > 100 | > 100 | > 100 | > 100 | > 100 | > 100 µM | > 100 | > 100 µM | > 100 | > 100 | > 100 | > 100 |
| C=CC(=O)NC(N)=NC#N |  | 245 |  | 304 | 171 | 361 |  | 315 |  | 330 |  | 289 |  | 303 µM |  | 329 µM | 303 |  |  |  |
| COC(=O)[C@@]1(C)C(=O)CC[C@@H]1C=O |  | > 100 |  | > 100 |  | > 100 |  | > 100 |  | > 100 |  |  |  | > 100 µM | > 100 |  | > 100 |  |  |  |
| COc1cccc(-c2cc(=O)c3cc(N4CCOCC4)ccc3[nH]2)c1 | 0.0709 | > 100 |  |  |  | > 100 | 0.0268 µM and 0.044 µM | 36.8 | 0.145 | > 100 |  |  | 0.0193 | 0.0505 µM and 0.42 µM | > 100 | 0.433 µM and 0.0581 µM |  | 0.0236 | 0.019 | 0.0608 |
| C#CC(=O)Nc1cccc2c1cc(C)n2-c1nc2c(c(NCc3ccccc3)n1)CCCC2 | 0.273 | 0.786 | 0.208 | 0.491 | 0.478 | 0.942 | 0.519 µM | 1.09 |  |  | 0.141 | 0.294 | 0.172 | 0.337 µM | 2.96 | 1 µM | 0.195 | 0.335 | 0.0547 | 1.31 |
| O=C(O)c1ccc(C(O)(c2ccccc2)c2ccccc2)cc1 |  | > 100 |  | > 100 |  | > 100 |  | > 100 |  | > 100 |  |  |  |  | > 100 |  | > 100 |  |  |  |
